Data set [1] relates to Caco-2 cell monolayers. It is filed as in vitro ADME, human. The method, then:
The correlation between TEER and permeation rate was examined to confirm the occurrence of Abi and Ahe transport via the paracellular pathway by using the LY fluorescent stain for comparison. Thus, Abi, Ahe, and LY were added to the apical chamber with or without cytochalasin B. The basal chamber solution was collected, and the TEER was measured every 1 h for 3 h, thereby quantifying Abi, Ahe, and LY in the basal chamber. The TEER and quantified values are plotted as a scatter plot in Figure 6.

Details of data set [2]: method as in PMID 20378994. The note with it: cited from earlier work.
The conditions of data set [3]: rat, in vivo, po.
Procedure: To prepare the standard curve samples of AOSs, the AOSs were labeled with ABEE using an ABEE labeling kit (J-Chemical, Tokyo, Japan) according to the method developed by Yasuno et al. ([11]). The reaction was performed according to the instructions provided by the manufacturer. Briefly, 40 μl of the ABEE reagent solution was added to 10 μl of the solution of AOSs and the mixture was vortexed and incubated at 80°C for 1 h. After cooling to 15–20°C, 200 μl of DW and an equal volume of chloroform were added, and the mixture was then vortexed and centrifuged for 1 min. The upper layer was filtered through a polytetrafluoroethylene membrane (4 mm diameter, 0.45-μm pore size; Membrane Solutions Limited, Plano, TX, USA) and subjected to LC-MS.
For the HPLC measurements, an LC-20AD pump (Shimadzu) fitted with a DGU-20A 5R degassing unit (Shimadzu) was used. The analytes were injected using a SIL-20AC autosampler (Shimadzu). In addition, a CTO-20AC column oven (Shimadzu) was used, and entire equipment was controlled using a CBM-20A unit (Shimadzu). The samples were separated on a Shim-pack VP-ODS (150 × 2.0 mm, 4.6 μm; Shimadzu) combined with a Shim-pack GVP-ODS guard column (2.0 mm i.d. × 5 mm, 4.6 μm; Shimadzu). The mobile phase consisted of acetic acid (0.1%) in water (A) and acetic acid (0.1%) in acetonitrile (B). The gradient conditions were as follows: 0–30 min, 9%−13% B; 30–45 min, 80% B; 45–60 min, 9% B. The flow rate was 0.2 ml/min. The column oven temperature was set at 60°C, and the autosampler temperature was 10°C.
The detection was performed using an LCMS-2020 (Shimadzu) ESI-MS device. The analytes were identified and quantified by selected ion monitoring in the positive-ion mode. The MS conditions were as follows: interface temperature, 350°C; desolvation line (DL) temperature, 250°C; heat block temperature, 200°C; nebulizer gas flow, 1.5 L/min; drying gas flow, 15 L/min; interface voltage, 4.5 kV; DL voltage, 0 kV.
Fifteen female Sprague–Dawley rats, aged 7 weeks, were purchased from Charles River Laboratories Japan (Kanagawa, Japan). The rats were acclimatized to standard laboratory conditions (20–25°C, 40%−70% humidity, and 12 h light/dark cycle) for 1 week.
After a fasting period of 12 h, 2 ml of phosphate-buffered saline (pH 7.4) containing 0%, 10%, or 50% AOSs was orally administered to five rats from each group (220–250 g body weight) using feeding gavages. The AOSs comprised 30.2, 29.1, and 31.6% of Abi, Ate, and Ahe, respectively. Blood (100 μl) was collected before and after 1, 2, 4, 8, and 24 h of oral administration from the tail vein using 10,000 U heparin-coated syringes (1 ml) with a 26G × 1/2 ” needle. The blood samples were centrifuged at 1,000 g for 10 min, and the supernatants were collected. Acetonitrile was added to the plasma samples at a final concentration of 60%. The samples were vigorously vortexed and centrifuged at 6,000 g for 5 min; the supernatants were collected and evaporated to dryness. Subsequently, the dried samples were dissolved in 10 μl of DW and subjected to ABEE derivatization before LC-MS analysis. The area under the curve (AUC) of plasma concentration was calculated using the trapezoid formula.
For data set [4], the system named is Caco-2 cell monolayers. It is filed as in vitro ADME, human. As to the method:
(§1) Caco-2 cells were purchased from DS Pharma (Osaka, Japan). The cells (passage 20–27) were cultured in E-MEM containing 10% (v/v) FBS, 1% (v/v) MEM-NEAA, and 1% (v/v) PS. The cells were incubated at 37°C in an atmosphere of 5% CO2 under 95% relative humidity. When the cells reached 80–90% confluence, they were passaged at a density of 1.0 × 10^5 cells onto a 12-well Transwell Permeable Support (0.4-μm pore polyester membrane insert, Corning, NY, USA). The cells were cultured for 19–21 days to obtain a monolayer. The culture medium (0.6 ml in the apical side and 1.5 ml in the basolateral side) was replaced every 1–2 days. The integrity of the Caco-2 cell monolayer was evaluated by measuring transepithelial electrical resistance (TEER) using a Millicell-ERS-2 system (Merck, Darmstadt, Germany). Only cell monolayers with final TEER values above 700 Ω · cm^2, indicative of high barrier integrity, were used for the transport assays.
(§2) Caco-2 cells monolayers were preincubated in HBSS for 30 min at 37°C. Subsequently, 0.6 ml of 0.5 mg/ml Abi and Ahe and 1.5 ml of HBSS to the apical and basolateral sides, respectively. After incubation for 0, 1, 2, and 3 h, the supernatant was collected from the basolateral side. To identify the transport mechanisms, Caco-2 cell monolayers were preincubated with sodium azide (1 mM), colchicine (1 mM), or cytochalasin B (5 μg/ml) dissolved in HBSS with 0.1% DMSO for 30 min, followed by the incubation of 0.5 mg/ml Abi and Ahe for 2 h. To remove salt, the collected supernatant was applied to the graphitized carbon solid-phase extraction (GC-SPE) using InertSep GC (200 mg/3 ml) (GL Sciences Inc., Tokyo, Japan), according to the method described by Ninonuevo et al. ([12]). The SPE cartridge was first equilibrated with 6 ml of 80% acetonitrile in 0.1% acetic acid (v/v), followed by 3 ml of DW. The basal solution was dissolved in DW to 3 ml and loaded onto the cartridge. The salts were removed by washing with 6 ml of DW, and Abi or Ahe was eluted with 3 ml of 20% acetonitrile. After ABEE derivatization, the collected solution was evaporated to dryness and subjected to LC-MS. The apparent permeability coefficients (Papp) were calculated ([13]) as Papp = (dQ/dt) × (1/AC0), where dQ/dt is the permeation rate (μg/s), A is the area of the monolayer of Caco-2 cells (cm^2), and C0 is the initial concentration of Abi or Ahe in the apical chamber (μg/ml).
This is another data set of the same source.

Data set [5] concerns Caco-2 cell monolayers. Nature of the data set: Transepithelial permeation route analysis with transport inhibitors in Caco-2 cell monolayers. As to conditions: for effect of sodium azide on transport rate: 1 mM sodium azide preincubated 30 min, then 2 h incubation; for effect of cytochalasin B on transepithelial permeability: Caco-2; for effect on TEER value of Caco-2 cell monolayers: inhibitor in apical chamber (sodium azide 1 mM, colchicine 1 mM, cytochalasin B 5 μg/ml), TEER after 2 h. The method, then:
as §1, §2
The effects of various inhibitors on the transepithelial absorption through Caco-2 cell monolayers were examined to identify the transport routes of Abi and Ahe. We used 1 mM sodium azide and 1 mM colchicine as an electron-transport-chain inhibitor and a transcytosis inhibitor, respectively, to determine whether an energy-dependent pathway is involved. […] Next, we used cytochalasin B as a tight junction disruptor to investigate the involvement of the paracellular pathway in the transepithelial permeation of Abi and Ahe. Cytochalasin B increases the paracellular permeability by affecting the tight junction structure through the myosin light chain kinase activation ([14]).
Background: Caco-2 cells form a polarised layer with tight junctions and transporters.

For another data set, the system named is peritoneal macrophages. Also noted: method as in PMID 22791164. The note with it: oral administration to mice, 3% AOSs containing water for 3 weeks; cited from earlier work.

Like-named read-outs stand apart in the source and are kept apart here.

Here are results for eight compounds from PMC9525106, “Intestinal permeability of agaro-oligosaccharides: Transport across Caco-2 cell monolayers and pharmacokinetics in rats” (Frontiers in Nutrition, 2022).

Regarding “Lucifer yellow CH dilithium salt [LY, reference compound]”, the “Pearson correlation coefficient value between TEER and amount permeated” value in the data set with Caco-2 cell monolayers [1] is −0.779.
With `OC[C@H]1O[C@@H](O)[C@H](O)[C@@H](O[C@@H]2O[C@H]3CO[C@@H]([C@@H]2O)[C@@H]3O[C@@H]2O[C@H](CO)[C@H](O)[C@H](O[C@@H]3O[C@H]4CO[C@@H]([C@@H]3O)[C@@H]4O[C@@H]3O[C@H](CO)[C@H](O)[C@H](O[C@@H]4O[C@H]5CO[C@@H]([C@@H]4O)[C@@H]5O)[C@H]3O)[C@H]2O)[C@H]1O` [neoagarohexaose], the anti-inflammatory activity entry in data set [2] is “no anti-inflammatory activity”.
Usually AUC stands for concentration integrated over time. As usually defined, the Cmax is the highest concentration seen after dosing. Broadly, the Tmax is the time at which the peak concentration occurs. As for `OC[C@H]1O[C@@H](O[C@H]2[C@H]3OC[C@@H]2O[C@@H](O[C@H]2[C@@H](O)[C@@H](CO)O[C@@H](O[C@H]4[C@H]5OC[C@@H]4O[C@@H](O[C@H]4[C@@H](O)[C@@H](CO)O[C@@H](O[C@H]6[C@H]7OC[C@@H]6OC(O)[C@H]7O)[C@@H]4O)[C@H]5O)[C@@H]2O)[C@H]3O)[C@H](O)[C@@H](O)[C@H]1O` (mixture of isomers) [Ahe, agarohexaose], in the data set on Caco-2 cell monolayers [1], the “Pearson correlation coefficient value between TEER and amount permeated” value was −0.814. Besides, in data set [3] (1 g/kg), the AUC came to 290 ± 270 ng·h/mL, the Cmax was 42.1 ± 37.1 ng/mL and the Tmax was found to be 4 h. Further, in data set [3] (5 g/kg), the AUC was found to be 460 ± 250 ng·h/mL, the maximum concentration (Cmax) is 107.8 ± 55.0 ng/mL and the Tmax was determined as 4 h. Moreover, in the data set with Caco-2 cell monolayers [4], the Papp is given as 0.21 ± 0.01 10^−6 cm/s and the percentage permeated is on record as 0.14 ± 0.01 %/h. For the same compound, in the data set on Caco-2 cell monolayers [5], the “effect of sodium azide on transport rate” value is reported as “did not have any significant effect” and the “effect of cytochalasin B on transepithelial permeability” value is “increased”.
In the case of `OC[C@H]1O[C@@H](O[C@H]2[C@H]3OC[C@@H]2OC(O)[C@H]3O)[C@H](O)[C@@H](O)[C@H]1O` (mixture of isomers) [Abi, agarobiose], the “Pearson correlation coefficient value between TEER and amount permeated” value in the data set with Caco-2 cell monolayers [1] is listed as −0.832. Further, the “nitric oxide (NO) production on stimulated peritoneal macrophages” value in the data set with peritoneal macrophages is given as “suppression”. Moreover, in data set [3] (1 g/kg), the AUC was found to be 620 ± 180 ng·h/mL, the Cmax amounted to 76.4 ± 36.7 ng/mL and the Tmax is listed as 4 h. Further, in data set [3] (5 g/kg), the AUC was 2560 ± 810 ng·h/mL, the Cmax was found to be 439.8 ± 182.6 ng/mL and the Tmax came out at 4 h. In the data set on Caco-2 cell monolayers [4], the Papp is recorded as 0.41 ± 0.03 10^−6 cm/s and the percentage permeated came to 0.27 ± 0.02 %/h. For the same compound, in the data set with Caco-2 cell monolayers [5], the “effect of sodium azide on transport rate” value is on record as “did not have any significant effect” and the “effect of cytochalasin B on transepithelial permeability” value is reported as “increased”.
On to `COc1cc2c(c(OC)c1OC)-c1ccc(OC)c(=O)cc1[C@@H](NC(C)=O)CC2` [colchicine, reference compound], for which, in the data set on Caco-2 cell monolayers [5], the “effect on TEER value of Caco-2 cell monolayers” value (from here on “effect on TEER value”) is “did not have any significant effect”.
Take `C=C1[C@@H](C)[C@H]2[C@H](Cc3ccccc3)NC(=O)[C@]23OC(=O)/C=C/[C@H](O)CCC[C@@H](C)C/C=C/[C@H]3[C@@H]1O` [cytochalasin B, reference compound]: the “effect on TEER value” value in the data set with Caco-2 cell monolayers [5] is on record as “significantly decreased”.
For the compound `OC[C@H]1O[C@@H](O[C@H]2[C@H]3OC[C@@H]2O[C@@H](O[C@H]2[C@@H](O)[C@@H](CO)O[C@@H](O[C@H]4[C@H]5OC[C@@H]4O[C@@H](O)[C@H]5O)[C@@H]2O)[C@H]3O)[C@H](O)[C@@H](O)[C@H]1O` [Ate, agarotetraose], in the data set with peritoneal macrophages, the “nitric oxide (NO) production on stimulated peritoneal macrophages” value is given as “suppression”. In data set [3] (1 g/kg), the AUC was 390 ± 170 ng·h/mL, the Cmax turned out to be 58.9 ± 37.6 ng/mL and the time of peak concentration (Tmax) came to 4 h. In data set [3] (5 g/kg), the AUC worked out at 1390 ± 450 ng·h/mL, the Cmax was 239.5 ± 98.2 ng/mL and the Tmax stood at 4 h.
As to `[N-]=[N+]=[N-].[Na+]` [sodium azide, reference compound], the “effect on TEER value” value in the data set with Caco-2 cell monolayers [5] is “did not have any significant effect”.
